{"source": "patent US11116778B2", "about": "“Prodrugs of ALOX-15 inhibitors and methods of using the same” (EMPIRICO INC., priority 2019, dated 2021)", "key": {"POSTN mRNA": {"test_system": "POSTN mRNA", "experiment": "POSTN mRNA by RT-qPCR in rabbit nasal mucosa", "assay_type": "in vivo", "settings": "rostral and caudal regions; rabbits, compound 5 10 mM intranasal", "protocol": "Six (6) female NZW rabbits were employed in this study. Rabbits were obtained from Covance (Denver Pa.). Rabbits were between approximately 10 and 12 months of age at the time of study start. At time point 0, all animals received 50 μL of solution containing rabbit IL4 (RND Systems/Biotechne) and human IL13 (PreproTech) at a concentration of 0.25 mg/mL each in 0.5×PBS containing 12.5 mg/mL BSA per nostril. This was administered intranasally via a venous catheter attached to a micropipette. The animal was positioned in a supine manner and the venous catheter inserted into the nostril. The volume was introduced into the nasal cavity and the same procedure was repeated with the other nostril. […]\nRelative ALOX15 and POSTN mRNA levels in nasal mucosa were measured by RT-qPCR. […] The level of ALOX15 or POSTN mRNA from each sample was measured in triplicate by real-time qPCR on an Applied Biosystems 7500 Fast Real-Time PCR machine using the TaqMan Gene Expression Assay for rabbit ALOX15 (ThermoFisher, assay #Oc03823548_s1). The level of GAPDH mRNA was measured in biplex reactions using TaqMan Gene Expression Assay (ThermoFisher, assay #Oc03823402_g1) and used to determine relative ALOX15 mRNA levels in each well using the delta-delta Ct method. […] Relative POSTN mRNA levels were measured as above using TaqMan Gene Expression Assay specific for rabbit POSTN mRNA (ThermoFisher, assay #Oc06804808_s1). […]"}, "[1]": {"molecular_target": "T1, 15-lipoxygenase in primary peripheral blood eosinophils (Homo sapiens, UniProt P16050)", "T1 sequence (P16050 1-662)": "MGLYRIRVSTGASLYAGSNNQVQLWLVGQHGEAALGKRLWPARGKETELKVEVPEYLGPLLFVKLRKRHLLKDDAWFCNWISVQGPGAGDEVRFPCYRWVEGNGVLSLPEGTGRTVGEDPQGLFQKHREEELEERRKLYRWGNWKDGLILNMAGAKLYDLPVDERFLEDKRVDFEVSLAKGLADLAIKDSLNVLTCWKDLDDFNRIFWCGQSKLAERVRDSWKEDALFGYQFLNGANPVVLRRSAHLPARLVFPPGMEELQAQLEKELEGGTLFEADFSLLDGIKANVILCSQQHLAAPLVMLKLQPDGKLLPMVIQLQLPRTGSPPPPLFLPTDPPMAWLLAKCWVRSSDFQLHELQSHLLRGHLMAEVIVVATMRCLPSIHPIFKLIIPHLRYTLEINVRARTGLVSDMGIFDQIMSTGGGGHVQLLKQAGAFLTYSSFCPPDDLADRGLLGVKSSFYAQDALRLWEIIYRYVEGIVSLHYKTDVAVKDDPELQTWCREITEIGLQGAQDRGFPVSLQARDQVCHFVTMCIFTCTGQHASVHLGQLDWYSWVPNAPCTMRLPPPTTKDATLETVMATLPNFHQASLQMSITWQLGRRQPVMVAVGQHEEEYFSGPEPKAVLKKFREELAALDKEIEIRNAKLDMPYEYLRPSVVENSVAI", "experiment": "Inhibition of 15-lipoxygenase in human primary eosinophils, 15(S)-HETE ELISA", "settings": "3 μM arachidonic acid", "experimental": "Primary peripheral blood eosinophils from 2 separate donors (StemExpress) were thawed from frozen and allowed to recover in growth media for 4 hours at 37° C. Cells were washed with Hank's Balanced Salt Solution, then aliquoted into 96 well round bottomed plate at 1*10^5 cells/well, 200 μL/well. […] Arachidonic acid was added to final concentration of 3 μM and experiment started. At 1 hour post-treatment the supernatant was collected and 15(S)-HETE was quantified by ELISA (Cayman Chemical) according to manufacturer's recommended protocol. Comparisons were made between the cells treated with the test compounds and cells treated with vehicle only."}}, "data": [{"smiles": "O=C(Nc1ccc(F)cc1Cl)c1nn(COP(=O)(O)O)c(Cl)c1Cl", "note": "[compound 5, (4,5-dichloro-3-((2-chloro-4-fluorophenyl)carbamoyl)-1H-pyrazol-1-yl)methyl dihydrogen phosphate]", "values": [{"measurement": "relative level of POSTN mRNA in nasal mucosa versus vehicle (FIG. 11)", "setting": "POSTN mRNA", "value": "lower"}, {"measurement": "decrease in 15-HETE production compared to vehicle or ALP alone (FIG. 2)", "setting": "[1]; 10 μM pretreated 15 minutes with 0.2 U alkaline phosphatase (ALP), 1 hour", "value": "approximately 60%"}, {"measurement": "decrease in 15-HETE production compared to vehicle or ALP alone (FIG. 2)", "setting": "[1]; 10 μM, 1 hour post-treatment", "value": "approximately 40%"}]}]}
